In publication PMC7460390, “Secondary Metabolites with Nitric Oxide Inhibition from Marine-Derived Fungus Alternaria sp. 5102” (Marine Drugs, 2020):
Where two headings read alike, the source gives them in different places.

Assays:
[1] = test system: NO production in RAW264.7 cells activated by lipopolysaccharide; test: Inhibition of NO production in LPS-activated RAW264.7 cells (Griess assay); format: cell-based, murine; conditions: for SI, selectivity index, calculated by CC50/IC50: CC50 (MTT) / IC50 (NO production); for IC50: read-out: IC50, inhibition of LPS-induced NO production
Experimental: After pre-incubation of RAW 264.7 cells (1.5 × 10^5 cells/mL) with LPS (1 µg/mL) and samples at 37 °C for 24 h, the quantity of nitrite accumulated in the culture medium was measured as an indicator of NO production. Briefly, 50 µL of cell culture medium were mixed with 100 µL Griess reagent, and incubated at room temperature for 10 min. The absorbance was determined at 540 nm wavelength with a microplate reader (Multiskan GO, Thermo Scientific, Waltham, MA, USA).

[2] = Cell viability, MTT assay, with LPS treatment; format: cell-based, murine; conditions: mouse, RAW 264.7 cells, MTT, LPS 1 µg/mL, 24 h, mean ± SD, n = 3
Experimental: (§1) In this work, all isolated compounds (1–22) were evaluated for their inhibition of nitric oxide (NO) production in RAW264.7 cells activated by lipopolysaccharide (LPS) using the Griess assay with indomethacin as a positive control (Table 3). […] To investigate whether the inhibitory activities of the active compounds were due to their cytotoxicity, the effects of the tested compounds on cell proliferation/viability were evaluated using the MTT method. […] Therefore, further studies are required to clarify the underlying mechanism of the active compounds.
(§2) Cell viability was measured using the conventional MTT assay. RAW 264.7 cells were seeded in 96-well plates at a density of 1.5 × 10^5 cells/mL. After 12 h, the cells were treated with LPS (1 µg/mL) and samples, followed by additional incubation for 24 h at 37 °C. MTT stock solution (2 mg/mL) was added to wells for a total reaction volume of 110 µL. After 4 h incubation, the supernatants were aspirated. The formazan crystals in each well were dissolved in 50 µL of DMSO, and the absorbance was measured using a microplate reader (Multiskan GO, Thermo Scientific, Waltham, MA, USA) at the wavelength of 490 nm. Relative cell viability was evaluated based on the quantity of MTT converted to the insoluble formazan salt. The optical density of formazan generated in the control cells represented 100% viability. The data were expressed as mean percentages of the viable cells compared to the respective control.

RAW 264.7 cells = test: Cell viability, MTT assay, with LPS treatment; format: cell-based, murine; conditions: up to 100 μM, with LPS treatment for 24 h
Experimental: as §1, §2

[3] = test system: RTX-induced mouse ear edema; design: method as in PMID 10840958; conditions: 50 µg per ear, topical; cited from earlier work
[4] = test system: spontaneous synchronous Ca^2+ oscillations; design: method as in PMID 32237750; conditions: cited from earlier work
[5] = test system: indoleamine 2,3-dioxygenase 1 (IDO1); design: method as in doi:10.1039/C9QO00775J; conditions: cited from earlier work
C. albicans = test system: C. albicans; design: method as in PMID 22377027; conditions: against C. albicans; cited from earlier work
[6] = test system: iNOS and COX-2 proteins and mRNA expressions in RAW 264.7 macrophages; design: method as in not given; conditions: ref not given; cited from earlier work
[7] = test system: NO production in lipopolysaccharide activated RAW264.7 cells; design: method as in PMID 29197643; conditions: LPS-activated RAW264.7 cells, in vitro; read-out: IC50, inhibition of NO production; cited from earlier work
[8] = Mus musculus, RAW264.7, 24 h, RAW 264.7 cells, LPS 1 µg/mL, 24 h, Griess assay, mean ± SD, n = 3
[9] = RAW 264.7 cells activated with LPS
[10] = RAW 264.7 cells, LPS 1 µg/mL, 24 h, Griess assay, mean ± SD, n = 3

| Molecule | SI, selectivity index, calculated by CC50/IC50 ([1]; RAW 264.7 cells) | IC50 [1, 8] | CC50 at 24 h [2, 9] | also measured |
| --- | --- | --- | --- | --- |
| COc1cc(O)c2c(c1)C1(OC2=O)C(C)=CC(=O)C1O (racemic) [Compound 10, ±talaroflavone] | 1.1 | 23.9 ± 3.3 µM | 27.2 ± 1.6 µM | – |
| CC(O)C(C)OC(=O)CC1OC(=O)c2c(O)cccc21 (centres unmarked) [Compound 1, alternabenzofuran A] | – | > 50 µM | > 100 µM | – |
| C[C@H](O)[C@@H](C)OC(=O)C[C@@H]1OC(=O)c2c(O)cccc21 [Compound 2, alternabenzofuran B] | – | 18.7 ± 2.35 µM | > 100 µM | Cytotoxicity (cell proliferation/viability, MTT) (RAW 264.7 cells): did not show any significant cytotoxicity |
| CC1=CC(=O)C2(C)CCCC(C)(CO)C23CC13 (centres unmarked) [Compound 3, alternaterpenoid A] | 10.4 | – | 24.9 ± 1.2 µM | – |
| CC1(C)CCCC2(C)C(=O)C=C(CO)C3CC312 (centres unmarked) [Compound 4, alternaterpenoid B] | – | ~50 µM | > 100 µM | – |
| COC(=O)C[C@@H]1OC(=O)c2c(O)cccc21 [Compound 5, isobenzofuranone A] | – | 41.1 ± 4.78 µM | > 100 µM | – |
| COc1cc(O)c2c(c1)C1=C(O)C(=O)C[C@@]1(C)OC2=O [Compound 7, (R)-1,6-dihydroxy-8-methoxy-3a-methyl-3,3a-dihydrocyclopenta[c]isochromene-2,5-dione] | 4.0 | < 10 µM | 20.6 ± 2.3 µM | IC50 [1, 10]: 5.2 ± 1.96 µM |
| COc1cc(O)c2c(=O)oc3c(c2c1)[C@@H](C)CC3=O [Compound 8, dihydroaltenuenes A] | – | > 50 µM | > 100 µM | – |
| COc1cc(O)c2c(=O)oc3c(c2c1)[C@@H](C)C[C@@H]3O [Compound 9, phialophriol] | – | – | > 100 µM | Cytotoxicity (cell proliferation/viability, MTT) (RAW 264.7 cells): did not show any significant cytotoxicity |
| COc1cc(O)c2c(=O)oc3cc(O)cc(C)c3c2c1 [Compound 11, alternariol-9-O-methyl ether] | – | – | – | IC50 ([1]; Mus musculus, RAW264.7, 24 h): 39 ± 1.92 µM; CC50 at 24 h [2]: > 100 µM; Cytotoxicity (cell proliferation/viability, MTT) (RAW 264.7 cells): did not show any significant cytotoxicity |
| Cc1cc(O)cc2oc(=O)c3c(O)cc(O)cc3c12 [Compound 12, alternariol] | 3.0 | – | – | IC50 ([1]; Mus musculus, RAW264.7, 24 h): 16.6 ± 1.6 µM; CC50 at 24 h [2]: 50.4 ± 2.1 µM |
| COc1cc(O)c2c(=O)oc3cc(O)c(C)cc3c2c1 [Compound 13, 2-methyl-9-methoxy alternariol] | 2.0 | – | – | IC50 ([1]; Mus musculus, RAW264.7, 24 h): 24.5 ± 4.51 µM; CC50 at 24 h [2]: 48.2 ± 2.6 µM |
| COc1cc(O)c2c(=O)oc3c(O)c(O)cc(C)c3c2c1 [Compound 14, 3’-hydroxyalternariol 5-O-methyl ether] | – | < 10 µM | – | IC50 [1, 10]: 5.9 ± 0.48 µM; CC50 [2]: > 100 µM; Cytotoxicity (cell proliferation/viability, MTT) (RAW 264.7 cells): did not show any significant cytotoxicity |
| COc1cc(O)c2c(=O)oc3cc(CO)cc(O)c3c2c1 [Compound 15, alternariol-1’-hydroxy-9-methyl ether] | 1.9 | – | – | IC50 ([1]; Mus musculus, RAW264.7, 24 h): 26.3 ± 3.99 µM; CC50 at 24 h [2]: 48.7 ± 1.8 µM |
| COc1cc(O)c2c(c1)C1=CC(=O)C(O)=CC1(C)OC2=O (centres unmarked) [Compound 16, dehydroaltenusin] | – | 1.3 to 41.1 µM | – | – |
| COc1cc(O)c2c(c1)-c1cc(O)c(O)cc1COC2=O [Compound 17, alteryulactone] | – | – | – | IC50 ([1]; Mus musculus, RAW264.7, 24 h): 16.2 ± 2.62 µM; CC50 at 24 h [2]: > 100 µM; Cytotoxicity (cell proliferation/viability, MTT) (RAW 264.7 cells): did not show any significant cytotoxicity |
| COC(=O)C1Cc2cccc(O)c2C(=O)O1 (centres unmarked) [Compound 18, tenuissimasatin] | 1.2 | 24.5 ± 1.06 µM | 28.3 ± 2.5 µM | – |
| COc1cc(O)c(C(=O)O)c(-c2cc(O)c(O)cc2C)c1 [Compound 20, altenusin] | – | – | – | IC50 ([1]; Mus musculus, RAW264.7, 24 h): 25.4 ± 3.03 µM; CC50 at 24 h [2]: > 100 µM |
| Cc1cc(=O)c2c(C)cc(O)cc2o1 [Compound 21, 2,5-dimethyl-7-hydroxychromone] | 1.2 | 14.9 ± 1.92 µM | 17.3 ± 2.2 µM | – |
| C[C@H]1CC(=O)OC[C@H]1O [Compound 22, walterolactone C] | 3.1 | 14.9 ± 1.92 µM | 46.4 ± 1.7 µM | – |
| CCC(C)[C@]1(O)NC(=O)[C@@H](C)n2c1nc1c(c2=O)C=C(OC)C=CO1 (some centres unmarked) [Oxepinamide A] | – | – | – | Inhibition rate, ear edema [3]: 82% |
| C=C1CC[C@H]2C(C)(C)[C@@H](O)CC[C@]2(C)[C@H]1CC(=O)[C@]1(O)C=C(CSC[C@H](O)C(=O)OC)C(=O)C1 [alternarin A] | – | – | – | Inhibition of spontaneous synchronous Ca2+ oscillations [4]: effective inhibition |
| COC1=CC(=O)c2c(O)c3c(c4c2[C@]12CC(=O)C[C@H]2[C@@]1(C[C@H](O)[C@H](O)CO1)O4)C[C@](C)(O)[C@H](O)C3 [anthrininone A] | – | – | – | Inhibition activity against IDO1 [5]: significant inhibition activity |
| COc1cc([C@H](Cc2ccccc2)NC(C)=O)oc(=O)c1 [pyrophen] | – | – | – | Anti-fungal activity (C. albicans): displayed anti-fungal activity |
| CC1=C[C@@H](O)[C@H]2C[C@@H](C)C[C@@H](C)[C@@H]2[C@H]1/C=C/C=C/C(=O)O [tanzawaic acid Q] | – | – | – | Effect on LPS-induced iNOS and COX-2 proteins and mRNA expressions [6]: inhibited |
| Amestolkolides B | – | – | – | IC50 [7]: 1.6 ± 0.1 µM |
